Reference: patent publication US20110105515A1, “TARGETING THE ONCOPROTEIN NUCLEOPHOSMIN” (President and Fellows of Harvard College, priority 2007, published 2011)
Entries after “also recorded” stand apart in the source; their conditions may differ.

Legend:
HeLa S3 cells [1] = experiment: Apoptosis in HeLa S3 cells (Yo-Pro cell permeability, annexin-binding); format: cell-based, human; conditions: Yo-Pro cell permeability and annexin-binding experiments
proteins of T-47D cells = experiment: Affinity-isolation from T-47D cells, LC-MS/MS analysis of proteins; conditions: narrower region of the gel; equal concentrations
nucleophosmin = nucleophosmin (Homo sapiens, UniProt P06748); experiment: Competitive binding affinity-isolation with probe 5 in T-47D lysates, nucleophosmin
LNCaP and T-47D cells = experiment: Western blot for apoptotic markers in LNCaP and T-47D cells; format: cell-based, human
peroxiredoxin 1 (PRX1) = molecular target: T1, peroxiredoxin 1 (PRX1) (Homo sapiens, UniProt Q06830); experiment: Competitive binding affinity-isolation with probe 5 in T-47D lysates, peroxiredoxin 1; conditions: 10 μM probe 5, 100 μM inhibitor
T1 construct: endogenous in cells; host or cells: T-47D lysate
Text: (§1) The supernatant was discarded.
(§2) See above for solution preparation.

[2] = previous report: 48-h incubation, MTS/PMS; cited from earlier work
p53 [3] = experiment: Effect of (+)-avrainvillamide incubation on p53/nucleophosmin, LNCaP cells (Western-blot); format: cell-based, human; conditions: 24 h
Protocol: (§3) Four 6-well plates (two for each cell line) were charged with 6 mL per well of cell suspension at 2×10^5 cells/mL. […] The following day, stock solutions of (+)-avrainvillamide (1) in fresh cell culture medium were prepared as indicated below:
(§4) To each 6-mL sample, a 200-μL aliquot of the appropriate stock solution was added, resulting in a final concentration of 0-4 μM (+)-avrainvillamide (1). The samples were returned to the incubator (37° C., 5% CO2) for 24 h.
(§5) The cells were resuspended in 1 mL PBS and mixed thoroughly. A 500-μL aliquot from each sample was transferred to a fresh 1.5-mL centrifuge tube. All the samples were centrifuged (5 min at 500×g) and the supernatant was discarded. The resulting 20 samples (10 samples of T-47D cells, treated with 0-4 μM (+)-avrainvillamide, and 10 samples of LNCaP cells, treated with 0-4 μM (+)-avrainvillamide (1), where each sample contained the number of cells from 1 well of a 6-well plate) were separated into two groups. One group of samples was lysed in RIPA buffer (see below) to prepare a series of whole-cell lysates. The other group of samples was first treated with sucrose-hypotonic buffer to prepare a series of cytosolic lysates. The remaining pellets were washed and treated with RIPA buffer to prepare a series of nuclear-enriched lysates (see below).

p53 [4] = experiment: Effect of (+)-avrainvillamide incubation on p53/nucleophosmin, T-47D cells (Western-blot); format: cell-based, human; conditions: 24 h
Protocol: as §3, §4, §5

HeLa S3 cells [5] = experiment: Transfection/apoptosis experiments in nucleophosmin-depleted HeLa S3 cells; format: cell-based, human; conditions: 24 h, Yo-Pro iodide/propidium iodide flow cytometry
Protocol: The concentration of the cell suspension was determined using a hemacytometer, and a suspension of 1×10^5 cells/mL was prepared.
A siRNA targeting NPM1.1 (Applied Biosystems, Cat. No. AM16708; ID 143640; 11.4 μL from a 50 μM stock solution) was added to Opti-MEM (938.6 μL). At the same time, a control siRNA (Applied Biosystems, Cat. No. AM4611; 11.4 μL from a 50 μM stock) was similarly added to Opti-MEM (938.6 μL).
The culture flasks were rinsed with an additional 5 mL medium, which was likewise added to the centrifuge tubes.
The concentration of the cell suspensions was determined using a hemacytometer. Over the course of the 2 d transfection period, both the transfected and mock-transfected cells grew ˜4-fold.
12-well plates were charged with 3 mL per well of suspensions of the transfected or mock-transfected cells, at 2.5×10^4 cells per mL. […] The following day, solutions of cell culture medium containing (+)-avrainvillamide or vehicle control were prepared. 500-μL aliquots of these solutions were added to the 3-mL samples. The treated samples were returned to the incubator (37° C., 5% CO2) for 24 h.
The supernatant was discarded, and the samples were cooled on ice. Apoptosis detection buffer (500 μL; see above for preparation) was added to each sample. […]
Each sample was analyzed on an LSRII flow cytometer, with 20,000 events recorded per sample. […]

exportin-1 (XPO1) = molecular target: T2, exportin-1 (XPO1) (Homo sapiens, UniProt O14980); experiment: Competitive binding affinity-isolation with probe 5 in T-47D lysates, exportin-1; conditions: 10 μM probe 5, 100 μM inhibitor
T2 construct: endogenous in cells; host or cells: T-47D lysate
Text: as §1, §2

[6] = system: MALME-3M and MALME-3 cells; experiment: Selectivity assay, malignant melanoma MALME-3M versus fibroblast MALME-3; format: cell-based; conditions: for selectivity factor, melanoma cells relative to fibroblast control (LC25, 25 percent cell death, estimate of GI50): MALME-3M versus MALME-3
Protocol: […]. A cell line from a healthy fibroblast from the same patient has also been deposited with the American Type Cell Culture Corporation (ATCC). Fresh stockes of both MALME-3M and MALME-3 from ATCC. Avrainvillamide was test against the two cells lines at the same time, taking all possible precautions to ensure that both sets of samples were treated identically. […] As a measure of cytotoxicity and antiproliferative activity, we calculated both LC50 and LC25 (as an estimate of GI50).
The 9.7-fold selectivity at 25 percent cell death is representative of at least a modest degree of selectivity. For comparison, cytochalsine B and geldanamycin were analyzed in identical experiments. Cytochalasine B is a non-selective cytotoxic agent for which a selectivity factor of 0.2 at 25 percent cell death was observed. Geldanamycin is known to be a potent, selective inhibitor of tumor cell growth for which a selectivity factor of >100 at 25 percent cell death was observed.

T-47D cells = experiment: Cell cycle effects in T-47D cells; format: cell-based, human

Compound: CC1(C)C=Cc2c(ccc3c2[N+]([O-])=C2C3=C[C@@]34NC(=O)C5(CCCN5C3=O)CC4C2(C)C)O1 (single isomer, unassigned; (+)) [compound 1, (+)-Avrainvillamide]
- cell death in HeLa S3 cells (HeLa S3 cells [1]): cell death through apoptosis
- detection of nucleophosmin by LC-MS/MS after affinity isolation (proteins of T-47D cells): not detected
- binding of nucleophosmin to probe 5 in the presence of a 10-fold higher concentration of competitor (nucleophosmin; 10 μM probe 5, 100 μM competitor, nuclear-enriched and whole-cell T-47D lysates): inhibited; also recorded: most effective
- concentration required for inhibition of probe 5-nucleophosmin binding (nucleophosmin; T-47D lysate): 100 µM
- inhibition of binding of nucleophosmin to probe 5 by analogues (FIG. 4) (nucleophosmin; T-47D nuclear-enriched lysate): inhibited essentially equivalently
- apoptotic markers (Western blot) (LNCaP and T-47D cells): appearance of pro-apoptotic factors
- blocking of the binding of probe 5 to peroxiredoxin 1 (PRX1) (peroxiredoxin 1 (PRX1)): capable of blocking
- fold more potent than the unnatural enantiomer (antiproliferative activity) [2]: ~9 fold
- concentration giving a substantial increase in cellular p53 (p53 [3]): 500 nM
- cellular p53 at the highest concentration (p53 [4]; 4 μM): reduction in cellular p53
- concentration giving a substantial increase in cellular p53 (p53 [4]; Western-blot): 500 nM
- apoptosis in HeLa S3 cells reduced in nucleophosmin (siRNA) relative to mock-transfected cells (HeLa S3 cells [5]): enhanced sensitivity
- blocking of the binding of probe 5 to exportin-1 (XPO1) (exportin-1 (XPO1)): capable of blocking
- activity against MALME-3M cells ([6]; MALME-3M): nanomolar activity
- selectivity factor, melanoma cells relative to fibroblast control (LC25, 25 percent cell death, estimate of GI50) ([6]; listed as Avrainvillamide): 9.7
- selectivity factor, melanoma cells relative to fibroblast control (LC25, 25 percent cell death, estimate of GI50) ([6]; listed as avrainvillamide): ~10
- cell cycle accumulatory effects (T-47D cells): immediate decrease in the number of cells in S-phase, followed by an increase in G2/M cells
